The source of these data is patent US11345659B2, “Pipecolic esters for inhibition of the proteasome” (THE BOARD OF REGENTS OF THE UNIVERSY OF TEXAS SYSTEM, priority 2018, dated 2022).

The pIC50 is −log10 of the IC50, conventionally taken in molar units.

pIC50: −log10 of the molar value.

Assay [1] has as its system human prostate cancer PC3 cells. Kind of assay: Efficacy study in nude mice xenografted with PC3 cells. Particulars: 10 mg/kg intra-tumorally. In kind it is in vivo. The procedure: The efficacy study was performed with mice xenografted with human cultured androgen-resistant prostate cancer PC3 cells. To assure efficient monitoring of tumor growth and dissemination, the cells expressing green fluorescent protein (GFP) and luciferine were used for xenografting (Bioware Brite PC3-RedFLuc-GFP). The study involved […] nude mice. Tumor-growing mice were treated intra-tumorally (IT) with the vehicle (dimethylsulfoxide; DMSO; 8 control mice) or with 10 mg/kg of compound 3 (10 mice). Injections were carried on Mondays, Wednesdays, and Fridays. To assure accurate assessment of the tumor size, at the time of first and last treatments the mice were injected with luciferine (substrate for luciferase) and the total intensity of fluorescent product was recorded by the Xenogen IVIS Spectrum small animal imager. […] The color scale from blue (lowest) through green, yellow and red (highest) corresponds to the intensity of fluorescence emitted from the tumor and thus represents the total mass of live cancer cells. Referring to FIG. 8 right panel, median ratios of last-to-first total tumor fluorescence values are shown. Apparently, the median tumor size in controls increased nearly three-fold (ratio=3.05), whereas in the treated cohort a tumor shrinkage was recorded instead (ratio=0.62).

In assay [2] the target is T1, latent core 20 S proteasome (Homo sapiens, UniProt P25787+P25789).
T1 construct: purified from erythrocytes; purchased Enzo Life Sciences, Inc. (Farmingdale, N.Y.); host or cells: human erythrocytes
Kind of assay: PGPH peptidase activity of latent 20 S core. In kind it is biochemical.

In assay [3] the target is T2, native human 20 S core proteasome (Homo sapiens, UniProt P25787+P25789).
T2 construct: purified from erythrocytes; purchased Enzo Life Sciences, Inc. (Farmingdale, N.Y.); host or cells: human erythrocytes
Kind of assay: AFM imaging of gate conformers of 20 S proteasome. Here is the method: The single molecule imaging of the 20 S proteasome was carried out as previously described, with a scanner E of the Multimode Nanoscope IIIa (Bruker Inc) (Gaczynska and Osmulski (2009) Atomic Force Microscopy as a Tool to Study the Proteasome Assemblies; Osmulski et al. (2009) Structure 17(8): 1137-1147. Available from http://www.scopus.com/inward/record.url?eid=2-s2.0-68149164657&partnerID=40&md5=dc5e413998472b20d822db9458de1955). In short, the proteasomes were deposited and electrostatically attached to a muscovite mica substrate, covered with imaging buffer (5 mM Tris/HCl, pH 7) and scanned in tapping mode in fluid using cantilevers with the spring constant of 0.35 N/m from the SNL (Sharp Nitride Lever) probes (Bruker Inc.) tuned to 9-10 kHz. Gentle scanning conditions with the amplitude setpoint in the range of 1.5-2.0V, drive voltage of 300-500 mV and 3.05 Hz scanning rate were used. Scans of 1 μm^2 fields (512×512 pixels) contained height-mode images of several dozens of top-view (“standing”) 20 S proteasome molecules. The gate status was deduced from a profile of raw height values of pixels measured by a probe scanning across the single proteasome particles. The proteasome a face that included the gate was completely rendered by a six-pixel (11-12 nm) scan-line. If the α face scan-line presented a central dip (a local minimum), the particle was classified as containing the open gate. If a plot of height values presented a concave function without a local minimum, the particle was classified as an intermediate conformer. If the function was convex, the particle was classified as containing the closed gate. The “events” of gate opening/closing were analyzed for scans of distinct particles as well as multiple scans of the same particles.
Next, AFM imaging of the native human 20 S core proteasome treated with 10 μM compound 3 was performed to get insight into the putative effects of the compound on the conformation of the α face in the single molecule fashion. In the in-liquid tapping mode AFM method, the outer shape of the α face is monitored by the ultra-sharp probe interacting […] with the protein molecule mostly by van der Waals forces (Gaczynska and Osmulski (2008) Methods Cell Biol. 90: 39-60). […] Treatment with 10 μM of rapamycin shifted the conformational equilibrium of the 20 S core from about 75% to about 50% of closed-gate molecules (Osmulski and Gaczynska (2013) Molecular pharmacology 84: 104-113). An apparent similar shift was induced by compound 3, when the partition of closed conformers dropped from 73±1% (n=4 experiments, 90 events of gate opening/closing) to 45±11% (n=6 experiments, 218 events). Moreover, upon additional refined analysis of “not closed” conformers, it was possible to distinguish the presumably open-gate forms from intermediate forms.
The putative binding site of compound 3 in the α ring pocket, identified by molecular modeling (FIG. 2) and biochemical data (FIG. 4), led to the examination of whether the inhibitor-induced conformational changes in a face gate dynamics. For this purpose, imaging of native 20 S proteasomes was employed using a previously established method of atomic force microscopy (AFM). In this method, topography of the α face of buffer-submerged proteasomes that stand on their opposite a face is rendered in real time by the ultra-sharp probe. A tip of the probe interacts with the molecules mostly by van der Waals forces (Gaczynska and Osmulski (2011) Methods Mol. Biol. 736: 117-32). The distribution of conformation types of a face is routinely accessed with sequential scans of fields of multiply randomly distributed proteasomes. Alternatively, consecutive single scan lines representing the gate status of individual particles are collected. The particles are classified as closed-gate if their a face is smooth and regularly concave (FIG. 5). […]

On to `COc1cc(CCCOC(=O)[C@@H]2CCCCN2C(=O)OCc2ccccc2)cc(OC)c1OC` [Compound 3, 1-benzyl 2-(3-(3,4,5-trimethoxyphenyl)propyl) (S)-piperidine-1,2-dicarboxylate], for which the “growth of xenografted tumor” value in assay [1] is “attenuated the growth of xenografted tumor”. Further, in assay [1] (Mon/Wed/Fri, control ratio 3.05), the “median ratio of last-to-first total tumor fluorescence” value stood at 0.62. In addition, the pIC50 in assay [2] was under 4.30. In addition, in assay [2] (10 μM compound, n=5, read-out: PGPH activity, % of control), the remaining activity at 10 µM worked out at 99%. The remaining activity at 50 µM in assay [2] (50 μM compound, n=3, read-out: PGPH activity, % of control) worked out at 71%. In assay [3] (100 nM), the “abundance of gate conformers” value was “increased the abundance of closed-gate conformers and rendered the open-gate forms nearly undetectable”. Further, the “contribution of open-gate proteasomes” value in assay [3] (1 μM) was “only about a half of that observed in the control particles”. The “particles in closed-gate conformation” value in assay [3] (10 μM) is “less than a half of the particles were in the closed-gate conformation”. For the same compound, the “contribution of open-gate and intermediate forms” value in assay [3] (10 μM, compared to control) is recorded as “increased about twice”. Further, the “partition of closed conformers” value in assay [3] (10 μM, n=6 experiments, 218 events, control 73±1%) is given as 45±11%. Also, in assay [3] (10 μM, versus control), the “number of intermediate forms” value is recorded as “increased significantly” and the “partition of open forms” value is given as “remained remarkably steady”.
